In patent US9815854B2, “3-(3H-imidazo[4,5-B]pyridin-2-yl)-1H-pyrazolo[3,4-C]pyridine and therapeutic uses thereof” (Samumed, LLC, priority 2014, dated 2017):

Tests used:
[1] = tested on: Wnt activity (Sp5-Luc reporter, TCF/LEF binding sites) in SW480 colon carcinoma cells; test: Sp5-Luc Wnt reporter gene screening assay in SW480 colon carcinoma cells; format: cell-based, human; conditions: Homo sapiens
Outline: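 SW480 cells stably transduced with a lentiviral luciferase reporter driven by a Sp5 promoter with eight TCF/LEF sites were plated at 10,000/well in 10% FCS medium. Luminescence was normalised to DMSO and IC50 derived by four-parameter fit.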

[2] = tested on: primary human fibroblasts derived from IPF patients (LL29 cells); test: Inhibition of the fibrotic process in TGF-β1-treated primary human fibroblasts from IPF patients (αSMA staining); format: cell-based; conditions: Fibroblast, 96 h, TGF-β1 20 ng/mL, 4 days, read-out: Inhibition of fibrosis EC50
Outline: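 IPF-derived LL29 lung fibroblasts, 1,500 per well in F12 with 1% FBS, treated with compound (10 μM to […], 0.1% DMSO) and TGF-β1 20 ng/mL for 4 days at 37 °C. αSMA-positive live cells imaged and normalised to TGF-β1 controls; EC50 by nonlinear regression over triplicate wells.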

Compound | IC50 [1] [nM] | EC50 [2] [nM]
CC(C)Nc1cncc(-c2cc3c(-c4nc5c(-c6cc(F)cc(NCCN(C)C)c6)ccnc5[nH]4)n[nH]c3cn2)c1 [Compound 454, N^1-(3-Fluoro-5-(2-(5-(5-(isopropylamino)pyridin-3-yl)-1H-pyrazolo[3,4-c]pyridin-3-yl)-3H-imidazo[4,5-b]pyridin-7-yl)phenyl)—N^2,N^2-dimethylethane-1,2-diamine] | 94.7 | 746
CCNCc1cncc(-c2cc3c(-c4nc5c(-c6ccccn6)ccnc5[nH]4)n[nH]c3cn2)c1 [Compound 136, N-((5-(3-(7-(Pyridin-2-yl)-3H-imidazo[4,5-b]pyridin-2-yl)-1H-pyrazolo[3,4-c]pyridin-5-yl)pyridin-3-yl)methyl)ethanamine] | 745 | ≤ 9
CCCC(=O)Nc1cncc(-c2cc3c(-c4nc5c(-c6ccc(F)cc6)ccnc5[nH]4)n[nH]c3cn2)c1 [Compound 43, N-(5-(3-(7-(4-Fluorophenyl)-3H-imidazo[4,5-b]pyridin-2-yl)-1H-pyrazolo[3,4-c]pyridin-5-yl)pyridin-3-yl)butyramide] | 21.2 | 69
CC(C)CC(=O)Nc1cncc(-c2cc3c(-c4nc5c(-c6ccc(F)s6)ccnc5[nH]4)n[nH]c3cn2)c1 [Compound 340, N -(5-(3-(7-(5-Fluorothiophen-2-yl)-3H-imidazo[4,5-b]pyridin-2-yl)-1H-pyrazolo[3,4-c]pyridin-5-yl)pyridin-3-yl)-3-methylbutanamide] | 27 | 767
CC(C)Nc1cncc(-c2cc3c(-c4nc5c(-c6cccs6)ccnc5[nH]4)n[nH]c3cn2)c1 [Compound 324, N-Isopropyl-5-(3-(7-(thiophen-2-yl)-3H-imidazo[4,5-b]pyridin-2-yl)-1H-pyrazolo[3,4-c]pyridin-5-yl)pyridin-3-amine] | 58.5 | ≥ 9990
CCCCC(=O)Nc1cncc(-c2cc3c(-c4nc5c(-c6ccoc6)ccnc5[nH]4)n[nH]c3cn2)c1 [Compound 304, N-(5-(3-(7-(Furan-3-yl)-3H-imidazo[4,5-b]pyridin-2-yl)-1H-pyrazolo [3,4c]pyridin-5-yl)pyridin-3-yl)pentanamide] | 60.7 | 3650
CCCC(=O)Nc1cncc(-c2cc3c(-c4nc5c(N6CCCCC6)ccnc5[nH]4)n[nH]c3cn2)c1 [Compound 173, N-(5-(3-(7-(Piperidin-1-yl)-3H-imidazo[4,5-b]pyridin-2-yl)-1H-pyrazolo[3,4-c]pyridin-5-yl)pyridin-3-yl)butyramide] | 169 | 18
O=C(Nc1cncc(-c2cc3c(-c4nc5c(-c6ccsc6)ccnc5[nH]4)n[nH]c3cn2)c1)c1ccccc1 [Compound 271, N-(5-(3-(7-(Thiophen-3-yl)-3H-imidazo[4,5-b]pyridin-2-yl)-1H-pyrazolo[3,4-c]pyridin-5-yl)pyridin-3-yl)benzarnide] | 16.6 | 51
Cc1cn(-c2ccnc3[nH]c(-c4n[nH]c5cnc(-c6cncc(CN7CCCC7)c6)cc45)nc23)cn1 [Compound 196] | > 10000 | ≥ 9990
O=C(Nc1cncc(-c2cc3c(-c4nc5c(-c6ccccn6)ccnc5[nH]4)n[nH]c3cn2)c1)c1ccccc1 [Compound 141, N-(5-(3-(7-(Pyridin-2-yl)-3H-imidazo[4,5-b]pyridin-2-yl)-1H-pyrazolo[3,4-c]pyridin-5-yl)pyridin-3-yl)benzamide] | > 10000 | ≥ 9990
Fc1ccc(-c2ccnc3[nH]c(-c4n[nH]c5cnc(-c6cncc(CN7CCCC7)c6)cc45)nc23)cc1 [Compound 40, 3-(7-(4-Fluorophenyl)-3H-imidazo[4,5-b]pyridin-2-yl)-5-(5-(pyrrolidn-1-ylmethyl)pyridin-3-yl)-1H-pyrazolo[3,4-c]pyridine] | 321 | 348
CCCCC(=O)Nc1cncc(-c2cc3c(-c4nc5c(-c6ccccn6)ccnc5[nH]4)n[nH]c3cn2)c1 [Compound 148, N-(5-(3-(7-(Pyridin-2-yl)-3H-imidazo[4,5-b]pyridin-2-yl)-1H-pyrazolo[3,4-c]pyridin-5-yl)pyridin-3-yl)pentanamide] | > 10000 | ≤ 9
CN1CCN(c2ccnc3[nH]c(-c4n[nH]c5cnc(-c6cncnc6)cc45)nc23)CC1 [Compound 234, 3-(7-(4-Methylpiperazin-1-yl)-3H-imidazo[4,5-b]pyridin-2-yl)-5-(pyrimidin-5-yl)-1H-pyrazolo[3,4-c]pyridine] | > 10000 | ≥ 9990
Nc1cncc(-c2cc3c(-c4nc5c(-c6ccccc6F)ccnc5[nH]4)n[nH]c3cn2)c1 [Compound 55, 5-(3-(7-(2-Fluorophenyl)-3H-imidazo[4,5-b]pyridin-2-yl)-1H-pyrazolo[3,4-c]pyridin-5-yl)pyridin-3-amine] | 26.8 | 20
c1cc(-c2ccoc2)c2nc(-c3n[nH]c4cnc(-c5cncc(CNCC6CCCC6)c5)cc34)[nH]c2n1 [Compound 310, 1-Cyclopentyl-N-((5-(3-(7-(furan-3-yl)-3H-imidazo[4,5-b]pyridin-2-yl)-1H-pyrazolo[3,4-c]pyridin-5-yl)pyridin-3-yl)methyl)methanamine] | 243 | 641
CN(C)CCNc1cc(F)cc(-c2ccnc3[nH]c(-c4n[nH]c5cnc(-c6cncc(CNCC7CCCC7)c6)cc45)nc23)c1 [Compound 466, N^1-(3-(2-(5-(5-(((Cyclopentylmethyl)amino)methyl)pyridin-3-yl)-1H-pyrazolo[3,4-c]pyridin-3-yl)-3H-imidazo[4,5-b]pyridin-7-yl)-5-fluorophenyl)—N2,N2-dimethylethane-1,2-diamine] | 1740 | ≤ 9
CC(C)Nc1cncc(-c2cc3c(-c4nc5c(-c6cccnc6)ccnc5[nH]4)n[nH]c3cn2)c1 [Compound 90, N-Isopropyl-5-(3-(7-(pyridin-3-yl)-3H-imidazo[4,5-b]pyridin-2-yl)-1H-pyrazolo[3,4-c]pyridin-5-yl)pyridin-3-amine] | > 10000 | ≥ 9990
c1ccc(CNCc2cncc(-c3cc4c(-c5nc6c(-c7ccsc7)ccnc6[nH]5)n[nH]c4cn3)c2)cc1 [Compound 283, N-benzyl-1-(5-(3-(7-(thiophen-3-yl)-3H-imidazo[4,5-b]pyridin-2-yl)-1H-pyrazolopyridin-5-yl)pyridin-3-yl) methenamine] | 74.7 | > 10000
CN1CCN(c2ccnc3[nH]c(-c4n[nH]c5cnc(-c6cncc(NC(=O)C7CCCC7)c6)cc45)nc23)CC1 [Compound 229, N-(5-(3-(7-(4-Methylpiperazin-1-yl)-3H-imidazo[4,5-b]pyridin-2-yl)-1H-pyrazolo[3,4-c]pyridin-5-yl)pyridin-3-yl)cyclopentanecarboxamide] | > 10000 | ≤ 9
CN(C)Cc1cncc(-c2cc3c(-c4nc5c(-c6cccs6)ccnc5[nH]4)n[nH]c3cn2)c1 [Compound 325, N,N-Dimethyl-1-(5-(3-(7-(thiophen-2-yl)-3H-imidazo[4,5-b]pyridin-2-yl)-1H-pyrazolo[3,4-c]pyridin-5-yl)pyridin-3-yl)methanamine] | 137 | 254
CC(C)C(=O)Nc1cncc(-c2cc3c(-c4nc5c(N6CCN(C)CC6)ccnc5[nH]4)n[nH]c3cn2)c1 [Compound 217, N-(5-(3-(7-(4-Methylpiperazin-1-yl)-3H-imidazo[4,5-b]pyridin-2-yl)1H-pyrazolo[3,4-c]pyridin-5-yl)pyridin-3-yl)isobutyramide] | > 10000 | ≥ 9990
